From US20080200693A1, “Derivatives of Aryl (or Heteroaryl) Azolylcarbinols (in Particular Cizolirtin Citrate) for the Treatment of Opioid Addiction” (LABORATORIOS DEL DR. ESTEVE S.A., priority 2004, published 2008)

Tested on: male Swiss albino mice
Assay: Determination of withdrawal symptoms (naloxone-induced jumps and shakes in opioid-dependent mice)
Type: in vivo
Procedure: Pharmacodyn, 1971, 190, pages 213-218 in male Swiss albino mice (weight 20-25 g, Harlan Iberica, S. Feliu de Codinas, Barcelona, Spain).
Opioid dependency is developed in the mice by intraperitoneal administration of the opioid in a suitable dose known to those skilled in the art, e.g. 5 mg/kg/day for 4 consecutive days for morphine. Withdrawal symptoms are then induced by the intravenous administration of a suitable opioid antagonist in a dose known to those skilled in the art, for example, 2 mg/kg naloxone in case of morphine, 30 minutes after the administration of the final dose of the opioid is completed.
In the 30 minute period following the naloxone administration the mice show typical withdrawal symptoms, namely jumps and shakes (of the wet dog shake type), which are counted and registered.
The active substance is administered in combination with the opioid to the mice for 4 consecutive days. After the administration of 2 mg/kg naloxone 30 minutes after the administration of the final dose of the active substance in combination with the opioid has been completed, the mice are closely watched for withdrawal symptoms, namely jumps and shakes (of the wet dog shake type), which are then counted and registered.
The influence of the active substance in combination with an opioid on withdrawal symptoms has been determined as described above.

| SMILES | Number of Jumps (morphine 5 mg/kg/day s.c. over 4 days, 2 mg/kg naloxone 30 min after final dose, counted in the following 30 minute period) | Number of shakes (morphine 5 mg/kg/day s.c. over 4 days, 2 mg/kg naloxone 30 min after final dose, wet dog shake type, counted in the following 30 minute period) | withdrawal symptoms usually associated with the administration of opioids (morphine) (co-administration with morphine, administered amount of the opioid not reduced, mice) |
| --- | --- | --- | --- |
| CN1CC[C@]23c4c5ccc(O)c4O[C@H]2[C@@H](O)C=C[C@H]3[C@H]1C5 [Morphine] | 6.6 | 16.3 |  |
| CN(C)CCOC(c1ccccc1)c1ccnn1C.O=C(O)CC(O)(CC(=O)O)C(=O)O (racemic) [Example 1, (±)-5-{α-[2-(dimethylamino)ethoxy]benzyl}-1-methyl-1H-pirazole citrate] |  |  | significantly reduced |
